Experimental data as given in patent US11591322B2, “Certain chemical compositions and methods of use thereof” (Algen Biotechnologies, Inc., priority 2020, dated 2023).

Tests used:
Hep3B cells = test: Cancer cell viability assay (CellTiter-Glo 2.0), Hep3B; format: cell-based, Human; details: 72 hours compound treatment
Description: (§1) Human liver cancer cell lines HepG2, Hep3B, Huh7, and SK-HEP-1 cells were rinsed and trypsinized with 0.25% trypsin (Corning #25-053-CI) in an incubator at 37° C. until detached. The cells were resuspended and seeded in 96-well plates to a density of 5,000 cells per well. Following cell adhesion, compounds were added to a final concentration of 2× dilution. 72 hours following compound treatment, CellTiter-Glo® 2.0 was added to the well in a 2:1 ratio of media/CellTiter-Glo® 2.0. The plates were shielded from light, shaken for 2 minutes, and incubated for 10 minutes. Luminescence was measured on a microplate reader and EC50 values were calculated using Prism 9 software.

[1] = Pharmacokinetic and tissue distribution study, liver versus blood in mice; format: in vivo; details: CD-1 mice, single oral dose 5 mg/kg suspension, 2 hours; compared with NVP-2 (FIG. 1)
Description: For mice experiments, the liver and blood pharmacokinetics of compounds were analyzed in CD-1 mice following a single oral administration dose of 5 mg/kg compound suspension.
Liver and blood samples for determination of compound concentration were obtained at 2 hours following administration of compounds (n=3 for each compound). The ratios of compound concentrations in liver versus blood in CD-1 mice following a single oral administration dose of 5 mg/kg compound suspension are summarized in FIG. 1.

CDK9/CyclinT = CDK9/CyclinT (Homo sapiens (Human), UniProt P50750); test: CDK9 biochemical assay (Kinase-Glo Max luminescence); details: 30° C. for 45 minutes
Description: To each well of a 96-well plate was added 5× kinase assay buffer with 10 mM DTT (6 μL), 500 μM ATP (1 μL), 5×CDK substrate (10 μL), and water (8 μL). 5 μL of compound were added to the test and positive control groups, while 5 μL of solvent was added to the blank groups. 100 ng of CDK9/CyclinT in 20 μL water was added to the test and positive control groups, while 20 μL of 1× kinase assay buffer was added to the blank groups. The reaction mixtures were incubated at 30° C. for 45 minutes, and 50 μL of Kinase-Glo® Max was added to each well and the plates were shielded from light and incubated for 15 minutes at room temperature. Luminescence was measured on a microplate reader and IC50 values were calculated using Prism 9 software.

HepG2 cells = test: Cancer cell viability assay (CellTiter-Glo 2.0), HepG2; format: cell-based, Human; details: HepG2, 72 hours compound treatment
Description: as §1

SK-HEP-1 cells = test: Cancer cell viability assay (CellTiter-Glo 2.0), SK-HEP-1; format: cell-based, Human; details: SK-HEP-1, 72 hours compound treatment
Description: as §1

Huh7 cells = test: Cancer cell viability assay (CellTiter-Glo 2.0), Huh7; format: cell-based, Human; details: Huh7, 72 hours compound treatment
Description: as §1

[2] = Pharmacokinetic study, jugular vein versus portal vein blood in rats; format: in vivo, Sprague-Dawley (SD) rats; details: SD rats, single oral dose 5 mg/kg suspension; compared with NVP-2 (FIG. 2)
Description: For rat experiments, the pharmacokinetics of compounds in blood collected from jugular vein and portal vein were analyzed in Sprague-Dawley (SD) rats following a single oral administration dose of 5 mg/kg compound suspension. Blood samples for determination of compound concentration were obtained from jugular vein and portal vein at 0.25 h, 0.5 h, 1 h, 2 h, 4 h, 6 h, 8 h, and 24 h following administration of compounds (n=3 for each compound). Collected liver and blood samples were analyzed using an LC-MS/MS method to quantify compound concentrations. The ratios of compound concentrations in blood collected from jugular vein versus portal vein in Sprague-Dawley (SD) rats following a single oral administration dose of 5 mg/kg compound suspension are summarized in FIG. 2.

[3] = Tolerability and safety assessment study (body weight change); format: in vivo; details: BALB/c nude mice; compared with NVP-2 (FIG. 3)
Description: Based on the body weight, BALB/c nude mice were randomly assigned to respective groups using a computer-generated randomization procedure. Body weights of all animals were measured daily to record weight changes (relative to day 1) of BALB/c nude mice treated with vehicle and compounds. For routine monitoring, all study animals were monitored for behavior such as mobility, food and water consumption, body weight, eye/hair matting and any other abnormal effect. Any mortality and/or abnormal clinical signs were recorded. The animals were euthanized when they lost significant body mass (emaciated, obvious body weight loss >20%).

Sequence of CDK9/CyclinT (P50750 whole entry): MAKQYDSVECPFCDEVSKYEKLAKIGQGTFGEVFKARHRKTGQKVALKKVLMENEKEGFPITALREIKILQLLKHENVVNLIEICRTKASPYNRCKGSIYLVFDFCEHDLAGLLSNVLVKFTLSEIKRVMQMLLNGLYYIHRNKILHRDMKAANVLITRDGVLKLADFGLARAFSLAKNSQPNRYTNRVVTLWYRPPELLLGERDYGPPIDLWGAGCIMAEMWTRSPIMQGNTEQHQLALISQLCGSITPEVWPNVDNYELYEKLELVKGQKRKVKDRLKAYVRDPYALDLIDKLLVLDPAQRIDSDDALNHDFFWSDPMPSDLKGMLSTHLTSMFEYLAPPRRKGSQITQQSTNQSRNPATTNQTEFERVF
Sequence of CDK9/CyclinT (O60563 whole entry partner): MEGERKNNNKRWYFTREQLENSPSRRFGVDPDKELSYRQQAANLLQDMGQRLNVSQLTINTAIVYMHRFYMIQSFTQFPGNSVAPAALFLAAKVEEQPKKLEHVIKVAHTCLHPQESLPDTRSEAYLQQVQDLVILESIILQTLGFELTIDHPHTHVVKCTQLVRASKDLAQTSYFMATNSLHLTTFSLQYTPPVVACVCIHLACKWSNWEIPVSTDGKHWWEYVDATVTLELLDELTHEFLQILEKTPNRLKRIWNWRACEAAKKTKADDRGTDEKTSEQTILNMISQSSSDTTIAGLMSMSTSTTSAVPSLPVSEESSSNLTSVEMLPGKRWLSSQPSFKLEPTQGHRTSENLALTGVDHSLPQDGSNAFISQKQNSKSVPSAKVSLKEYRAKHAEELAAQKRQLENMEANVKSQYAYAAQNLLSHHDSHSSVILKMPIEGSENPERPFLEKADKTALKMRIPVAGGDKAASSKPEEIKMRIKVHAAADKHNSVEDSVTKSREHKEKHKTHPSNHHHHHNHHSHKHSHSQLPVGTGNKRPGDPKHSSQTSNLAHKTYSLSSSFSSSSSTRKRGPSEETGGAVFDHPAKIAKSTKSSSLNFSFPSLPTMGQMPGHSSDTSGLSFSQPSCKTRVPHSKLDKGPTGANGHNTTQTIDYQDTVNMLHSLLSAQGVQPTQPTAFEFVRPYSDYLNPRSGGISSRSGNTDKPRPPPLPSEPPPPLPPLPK

Row | SMILES | EC50 (Hep3B cells) [nM] | ratio of compound concentrations in liver versus blood [1] | IC50 (CDK9/CyclinT) [nM] | EC50 (HepG2 cells) [nM] | EC50 (SK-HEP-1 cells) [nM] | EC50 (Huh7 cells) [nM] | ratio of compound concentrations in blood from jugular vein versus portal vein (liver efflux/influx ratio) [2] | toxicity (mean weight changes relative to day 1) [3]
1 | C[C@H](COCCNS(=O)(=O)C(F)(F)F)NC1CCC(Nc2cc(-c3cccc(NCC4(C#N)CCOCC4)n3)c(Cl)cn2)CC1 (mixture of isomers) [Compound 40, N-(2-(2-(((1r,4r)-4-((5′-chloro-6-(((4-cyanotetrahydro-2H-pyran-4-yl)methyl)amino)-[2,4′-bipyridin]-2′-yl)amino)cyclohexyl)amino)propoxy)ethyl)-1,1,1-trifluoromethanesulfonamide] | 100 to 500 | higher liver/blood ratios than NVP-2 | 2.5 to 5 | < 100 | – | – | – | –
2 | C[C@H](COCc1nn[nH]n1)N[C@H]1CC[C@H](Nc2cc(-c3cccc(NCC4(C#N)CCOCC4)n3)c(Cl)cn2)CC1 [Compound 2, 4-(((2′-(((1R,4R)-4-(((R)-1-((2H-tetrazol-5-yl)methoxy)propan-2-yl)amino)cyclohexyl)amino)-5′-chloro-[2,4′-bipyridin]-6-yl)amino)methyl)tetrahydro-2H-pyran-4-carbonitrile] | > 1000 | – | > 10 | > 1000 | > 1000 | 500 to 1000 | – | –
3 | C[C@@H](COCC(=O)O)NC1CCC(Nc2cc(-c3cccc(NCC4(C#N)CCOCC4)n3)c(Cl)cn2)CC1 (stereo partly drawn) [Compound 9, 2-((S)-2-(((1R,4S)-4-((5′-chloro-6-(((4-cyanotetrahydro-2H-pyran-4-yl)methyl)amino)-[2,4′-bipyridin]-2′-yl)amino)cyclohexyl)amino)propoxy)acetic acid] | > 1000 | – | 5 to 10 | > 1000 | > 1000 | > 1000 | – | –
4 | C[C@H](COCC(=O)OC(C)(C)C)N[C@H]1CC[C@H](Nc2cc(-c3cccc(NCC4(C#N)CCOCC4)n3)c(Cl)cn2)CC1 [Compound 18, tert-butyl 2-((R)-2-(((1r,4R)-4-((5′-chloro-6-(((4-cyanotetrahydro-2H-pyran-4-yl)methyl)amino)-[2,4′-bipyridin]-2′-yl)amino)cyclohexyl)amino)propoxy)acetate] | < 100 | higher liver/blood ratios than NVP-2 | > 10 | < 100 | < 100 | < 100 | lower liver efflux/influx ratio than NVP-2 | lower toxicity than NVP-2
5 | C[C@H](COCc1nnn(C)n1)N[C@H]1CC[C@H](Nc2cc(-c3cccc(NCC4(C#N)CCOCC4)n3)c(Cl)cn2)CC1 [Compound 33, 4-(((5′-chloro-2′-(((1R,4r)-4-(((R)-1-((2-methyl-2H-tetrazol-5-yl)methoxy)propan-2-yl)amino)cyclohexyl)amino)-[2,4′-bipyridin]-6-yl)amino)methyl)tetrahydro-2H-pyran-4-carbonitrile] | 100 to 500 | higher liver/blood ratios than NVP-2 | 5 to 10 | < 100 | – | – | – | –

Now from value to compound, other results behind:

Row | EC50 (Hep3B cells) [nM] | ratio of compound concentrations in liver versus blood [1] | IC50 (CDK9/CyclinT) [nM] | EC50 (HepG2 cells) [nM] | EC50 (SK-HEP-1 cells) [nM] | EC50 (Huh7 cells) [nM] | SMILES | ratio of compound concentrations in blood from jugular vein versus portal vein (liver efflux/influx ratio) [2] | toxicity (mean weight changes relative to day 1) [3]
6 | 100 to 500 | – | < 2.5 | 500 to 1000 | < 100 | < 100 | CCOC(=O)COC[C@H](C)NC1CCC(Nc2cc(-c3cccc(NCC4(C#N)CCOCC4)n3)c(Cl)cn2)CC1 (stereo partly shown) [Compound 6] | lower liver efflux/influx ratio than NVP-2 | –
7 | – | – | 5 to 10 | 100 to 500 | < 100 | < 100 | CC(C)OC(=O)COC[C@H](C)N[C@H]1CC[C@H](Nc2cc(-c3cccc(NCC4(C#N)CCOCC4)n3)c(Cl)cn2)CC1 [Compound 16, isopropyl 2-((S)-2-(((1r,4S)-4-((5′-chloro-6-(((4-cyanotetrahydro-2H-pyran-4-yl)methyl)amino)-[2,4′-bipyridin]-2′-yl)amino)cyclohexyl)amino)propoxy)acetate] | – | –
8 | – | – | 2.5 to 5 | < 100 | < 100 | < 100 | C[C@@H](COCC(=O)OC(C)(C)C)N[C@H]1CC[C@H](Nc2cc(-c3cccc(NCC4(C#N)CCOCC4)n3)c(Cl)cn2)CC1 [Compound 19, tert-butyl 2-((S)-2-(((1r,4S)-4-((5′-chloro-6-(((4-cyanotetrahydro-2H-pyran-4-yl)methyl)amino)-[2,4′-bipyridin]-2′-yl)amino)cyclohexyl)amino)propoxy)acetate] | – | –
